Assay results taken from ChEMBL document CHEMBL1141900, “Synthesis and antibacterial activity of C2-fluoro, C6-carbamate ketolides, and their C9-oximes” (2005).
Converted amounts (≈) assume the structure as drawn.

What was measured:
Type in all cases: functional
Haemophilus influenzae = assay: Minimum inhibitory concentration of the compound against Haemophilus influenzae OC4882 was determined
Streptococcus pneumoniae [1] = assay: Minimum inhibitory concentration of the compound against erythromycin-susceptible Streptococcus pneumoniae was determined
Streptococcus pneumoniae [2] = assay: Minimum inhibitory concentration of the compound against 3 […] Streptococcus pneumoniae OC4421 with an mef(A) efflux-mediated resistance was determined
Staphylococcus aureus = assay: Minimum inhibitory concentration of the compound against erythromycin-susceptible Staphylococcus aureus Smith OC4172 was determined
Streptococcus pneumoniae [3] = assay: Minimum inhibitory concentration of the compound against 3 […] Streptococcus pneumoniae OC4051 with an erm(B)-ribosomal methylase-mediated resistance was determined
Enterococcus faecalis = assay: Minimum inhibitory concentration of the compound againstEnterococcus faecalis ATCC 51299 with an erm(B)-encoded ribosomal methylase was determined
Mus musculus [4] = assay: Effective dose required to inhibit Staphylococcus aureus in mouse was determined after sub cutaneous administration (6.6-70)
Mus musculus [5] = assay: Effective dose required to inhibit Staphylococcus aureus in mouse was determined after peroral administration of the compound; details: po

Compound | MIC (Haemophilus influenzae) [µg/mL] | MIC (Streptococcus pneumoniae [1]) [µg/mL] | MIC (Streptococcus pneumoniae [2]) [µg/mL] | MIC (Staphylococcus aureus) [µg/mL] | MIC (Streptococcus pneumoniae [3]) [µg/mL] | MIC (Enterococcus faecalis) [µg/mL] | ED50 (Mus musculus [4]) [mg/kg] | ED50 (Mus musculus [5]) [mg/kg]
CC[C@H]1OC(=O)[C@@](C)(F)C(=O)[C@H](C)[C@@H](O[C@@H]2O[C@H](C)C[C@H](N(C)C)[C@H]2O)[C@](C)(OC(=O)NC/C=C/c2cccnc2)C[C@@H](C)/C(=N\O)[C@H](C)[C@H]2NC(=O)O[C@@]21C | 2 (≈ 2.53 µM) | 0.06 (≈ 0.0758 µM) | 0.5 (≈ 0.631 µM) | 0.5 (≈ 0.631 µM) | 0.12 (≈ 0.152 µM) | > 16 |  | 
CC[C@H]1OC(=O)[C@@](C)(F)C(=O)[C@H](C)[C@@H](O[C@@H]2O[C@H](C)C[C@H](N(C)C)[C@H]2O)[C@](C)(OC(=O)NC/C=C/c2ccc(-c3ccncn3)cc2)C[C@@H](C)C(=O)[C@H](C)[C@H]2NC(=O)O[C@@]21C | 4 (≈ 4.68 µM) | 0.03 (≈ 0.0351 µM) | 0.12 (≈ 0.141 µM) | 0.25 (≈ 0.293 µM) | 0.06 (≈ 0.0703 µM) | > 16 |  | 
CC[C@H]1OC(=O)[C@@](C)(F)C(=O)[C@H](C)[C@@H](O[C@@H]2O[C@H](C)C[C@H](N(C)C)[C@H]2O)[C@](C)(OC(=O)NC/C=C/c2ccc(-c3ccccn3)cc2)C[C@@H](C)C(=O)[C@H](C)[C@H]2NC(=O)O[C@@]21C | 4 (≈ 4.69 µM) | 0.06 (≈ 0.0703 µM) | 0.12 (≈ 0.141 µM) | 0.25 (≈ 0.293 µM) | 0.06 (≈ 0.0703 µM) | 4 (≈ 4.69 µM) |  | 
CC[C@H]1OC(=O)[C@@](C)(F)C(=O)[C@H](C)[C@@H](O[C@@H]2O[C@H](C)C[C@H](N(C)C)[C@H]2O)[C@](C)(OC(=O)NCCOCc2ccc(-c3ncccn3)cc2)C[C@@H](C)/C(=N\O)[C@H](C)[C@H]2NC(=O)O[C@@]21C | 8 (≈ 9.02 µM) | 0.06 (≈ 0.0676 µM) | 0.25 (≈ 0.282 µM) | 0.5 (≈ 0.564 µM) | 0.06 (≈ 0.0676 µM) | 16 (≈ 18 µM) |  | 
CC[C@H]1OC(=O)[C@@](C)(F)C(=O)[C@H](C)[C@@H](O[C@@H]2O[C@H](C)C[C@H](N(C)C)[C@H]2O)[C@](C)(OC(=O)NC/C=C/c2cn(-c3ncccn3)cn2)C[C@@H](C)C(=O)[C@H](C)[C@H]2NC(=O)O[C@@]21C | 8 (≈ 9.48 µM) | 0.03 (≈ 0.0355 µM) | 0.25 (≈ 0.296 µM) | 0.12 (≈ 0.142 µM) | 0.06 (≈ 0.0711 µM) | 8 (≈ 9.48 µM) |  | 
CC[C@H]1OC(=O)[C@@](C)(F)C(=O)[C@H](C)[C@@H](O[C@@H]2O[C@H](C)C[C@H](N(C)C)[C@H]2O)[C@](C)(OC(=O)NCc2ccc(-c3ccncn3)cc2)C[C@@H](C)C(=O)[C@H](C)[C@H]2NC(=O)O[C@@]21C | 4 (≈ 4.83 µM) | 0.03 (≈ 0.0362 µM) | 0.12 (≈ 0.145 µM) | 0.12 (≈ 0.145 µM) | 0.06 (≈ 0.0725 µM) | 16 (≈ 19.3 µM) |  | 
CC[C@H]1OC(=O)[C@@](C)(F)C(=O)[C@H](C)[C@@H](O[C@@H]2O[C@H](C)C[C@H](N(C)C)[C@H]2O)[C@](C)(OC(=O)NC/C=C/c2ccc(-c3ncccn3)o2)C[C@@H](C)C(=O)[C@H](C)[C@H]2NC(=O)O[C@@]21C | 16 (≈ 19 µM) | 0.06 (≈ 0.0711 µM) | 0.5 (≈ 0.592 µM) | 0.5 (≈ 0.592 µM) | 0.12 (≈ 0.142 µM) | > 16 |  | 
CC[C@H]1OC(=O)[C@@](C)(F)C(=O)[C@H](C)[C@@H](O[C@@H]2O[C@H](C)C[C@H](N(C)C)[C@H]2O)[C@](C)(OC(=O)NCCOCc2ccc(-c3ncccn3)cc2)C[C@@H](C)C(=O)[C@H](C)[C@H]2NC(=O)O[C@@]21C | 8 (≈ 9.17 µM) | 0.06 (≈ 0.0688 µM) | 0.12 (≈ 0.138 µM) | 0.25 (≈ 0.287 µM) | 0.12 (≈ 0.138 µM) | > 16 |  | 
CC[C@H]1OC(=O)[C@@](C)(F)C(=O)[C@H](C)[C@@H](O[C@@H]2O[C@H](C)C[C@H](N(C)C)[C@H]2O)[C@](C)(OC(=O)NC/C=C/c2ccc(-c3ncccn3)cc2)C[C@@H](C)C(=O)[C@H](C)[C@H]2NC(=O)O[C@@]21C | 8 (≈ 9.37 µM) | 0.06 (≈ 0.0703 µM) | 0.12 (≈ 0.141 µM) | 0.5 (≈ 0.585 µM) | 0.12 (≈ 0.141 µM) | 8 (≈ 9.37 µM) | 12 | > 40
CC[C@H]1OC(=O)[C@@](C)(F)C(=O)[C@H](C)[C@@H](O[C@@H]2O[C@H](C)C[C@H](N(C)C)[C@H]2O)[C@](C)(OC(=O)NC/C=C/c2ccc(-c3cccnn3)cc2)C[C@@H](C)C(=O)[C@H](C)[C@H]2NC(=O)O[C@@]21C | 4 (≈ 4.68 µM) | 0.03 (≈ 0.0351 µM) | 0.12 (≈ 0.141 µM) | 0.12 (≈ 0.141 µM) | 0.06 (≈ 0.0703 µM) | 4 (≈ 4.68 µM) |  | 
CC[C@H]1OC(=O)[C@@](C)(F)C(=O)[C@H](C)[C@@H](O[C@@H]2O[C@H](C)C[C@H](N(C)C)[C@H]2O)[C@](C)(OC(N)=O)C[C@@H](C)/C(=N\O)[C@H](C)[C@H]2NC(=O)O[C@@]21C | 4 (≈ 5.93 µM) | 0.12 (≈ 0.178 µM) | 2 (≈ 2.96 µM) | 1 (≈ 1.48 µM) | 2 (≈ 2.96 µM) | > 16 |  | 
CC[C@H]1OC(=O)[C@@](C)(F)C(=O)[C@H](C)[C@@H](O[C@@H]2O[C@H](C)C[C@H](N(C)C)[C@H]2O)[C@](C)(OC(=O)NC/C=C/c2cncc(-c3ccccn3)c2)C[C@@H](C)C(=O)[C@H](C)[C@H]2NC(=O)O[C@@]21C | 8 (≈ 9.37 µM) | 0.03 (≈ 0.0351 µM) | 0.12 (≈ 0.141 µM) | 0.25 (≈ 0.293 µM) | 0.06 (≈ 0.0703 µM) | 4 (≈ 4.68 µM) |  | 
